Data from ChEMBL document CHEMBL1201862, “PubChem BioAssay data set” (2004).
Active and inactive are the calls of the source.

What was measured:
[1] = target: T1, Adenosylmethionine-8-amino-7-oxononanoate aminotransferase (Mycobacterium tuberculosis, UniProt P9WQ81); assay: Mycobacterium tuberculosis BioA enzyme inhibitor Measured in Biochemical System Using Plate Reader - 2163-02_Inhibitor_Dose_CherryPick_Activity.; assay type: functional, Mycobacterium tuberculosis UT205
T1 sequence (P9WQ81 whole entry): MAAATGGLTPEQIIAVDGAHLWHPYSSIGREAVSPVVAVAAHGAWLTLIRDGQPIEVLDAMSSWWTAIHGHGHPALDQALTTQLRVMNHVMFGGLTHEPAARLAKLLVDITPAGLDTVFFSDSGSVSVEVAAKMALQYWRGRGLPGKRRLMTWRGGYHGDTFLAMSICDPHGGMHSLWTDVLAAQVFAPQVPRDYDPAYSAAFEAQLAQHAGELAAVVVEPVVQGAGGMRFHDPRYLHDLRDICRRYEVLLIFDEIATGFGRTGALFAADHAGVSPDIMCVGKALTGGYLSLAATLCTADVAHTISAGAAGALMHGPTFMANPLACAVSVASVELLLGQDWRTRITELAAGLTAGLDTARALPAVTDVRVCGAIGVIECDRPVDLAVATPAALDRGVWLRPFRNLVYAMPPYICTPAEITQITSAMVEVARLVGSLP

[2] = target: T2, Type-1 angiotensin II receptor (Homo sapiens, UniProt P30556); assay: AT1 receptor antagonists, dose response, selectivity assay for APJ receptor antagonist project, cell-based, uHTS hits (AID 463214); assay type: functional;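 also: antagonist potency against angiotensin II stimulated AT1 response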
T2 sequence (P30556 whole entry): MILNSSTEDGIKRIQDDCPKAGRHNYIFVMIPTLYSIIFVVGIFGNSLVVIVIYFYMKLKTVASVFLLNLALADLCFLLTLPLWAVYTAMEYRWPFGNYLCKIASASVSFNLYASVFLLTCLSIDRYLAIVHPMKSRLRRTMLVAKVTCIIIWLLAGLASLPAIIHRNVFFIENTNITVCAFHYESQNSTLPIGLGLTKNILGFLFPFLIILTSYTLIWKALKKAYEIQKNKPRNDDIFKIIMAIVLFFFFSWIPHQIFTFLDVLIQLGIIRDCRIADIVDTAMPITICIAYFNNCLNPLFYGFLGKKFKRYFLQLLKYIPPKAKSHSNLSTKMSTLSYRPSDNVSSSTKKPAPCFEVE

Beta-galactosidase = Beta-galactosidase (Escherichia coli, UniProt Q8VNN2); assay: PubChem AID 485352; assay type: functional
Beta-galactosidase, sequence (Q8VNN2 whole entry): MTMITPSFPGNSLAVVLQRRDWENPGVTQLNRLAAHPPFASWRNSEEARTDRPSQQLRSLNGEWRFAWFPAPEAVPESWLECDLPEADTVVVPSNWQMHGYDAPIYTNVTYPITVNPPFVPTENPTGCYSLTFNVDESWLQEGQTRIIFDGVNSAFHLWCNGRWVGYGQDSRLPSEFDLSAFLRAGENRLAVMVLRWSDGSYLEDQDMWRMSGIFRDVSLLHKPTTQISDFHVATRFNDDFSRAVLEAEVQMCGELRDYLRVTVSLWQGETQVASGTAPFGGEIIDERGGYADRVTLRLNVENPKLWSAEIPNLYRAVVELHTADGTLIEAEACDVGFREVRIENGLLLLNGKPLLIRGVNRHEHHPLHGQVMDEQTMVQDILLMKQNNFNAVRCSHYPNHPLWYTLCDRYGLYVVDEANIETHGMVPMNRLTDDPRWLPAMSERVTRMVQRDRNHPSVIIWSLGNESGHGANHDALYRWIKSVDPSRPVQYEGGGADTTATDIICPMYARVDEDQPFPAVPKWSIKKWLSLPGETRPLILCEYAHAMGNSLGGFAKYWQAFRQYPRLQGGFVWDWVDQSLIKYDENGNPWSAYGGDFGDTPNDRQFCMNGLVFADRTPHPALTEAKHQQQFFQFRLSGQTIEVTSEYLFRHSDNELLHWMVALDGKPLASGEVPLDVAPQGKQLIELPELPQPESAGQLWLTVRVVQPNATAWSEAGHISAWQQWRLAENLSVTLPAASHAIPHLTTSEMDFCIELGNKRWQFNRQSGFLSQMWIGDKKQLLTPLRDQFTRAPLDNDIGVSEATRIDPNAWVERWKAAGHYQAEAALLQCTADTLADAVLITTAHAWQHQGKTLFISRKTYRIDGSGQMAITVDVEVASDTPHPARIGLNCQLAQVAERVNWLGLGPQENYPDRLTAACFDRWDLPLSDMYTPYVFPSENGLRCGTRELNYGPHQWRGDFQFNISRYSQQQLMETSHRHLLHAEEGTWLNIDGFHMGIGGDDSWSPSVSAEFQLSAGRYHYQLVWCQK

cells = assay type: functional, cell-based
[3] = target: T3, Nuclear receptor subfamily 0 group B member 1 (Homo sapiens, UniProt P51843); assay type: functional, cell-based;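 also: HEK293T cells transfected with SF-1 and DAX-1 plus StAR promoter luciferase reporter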
T3 sequence (P51843 whole entry): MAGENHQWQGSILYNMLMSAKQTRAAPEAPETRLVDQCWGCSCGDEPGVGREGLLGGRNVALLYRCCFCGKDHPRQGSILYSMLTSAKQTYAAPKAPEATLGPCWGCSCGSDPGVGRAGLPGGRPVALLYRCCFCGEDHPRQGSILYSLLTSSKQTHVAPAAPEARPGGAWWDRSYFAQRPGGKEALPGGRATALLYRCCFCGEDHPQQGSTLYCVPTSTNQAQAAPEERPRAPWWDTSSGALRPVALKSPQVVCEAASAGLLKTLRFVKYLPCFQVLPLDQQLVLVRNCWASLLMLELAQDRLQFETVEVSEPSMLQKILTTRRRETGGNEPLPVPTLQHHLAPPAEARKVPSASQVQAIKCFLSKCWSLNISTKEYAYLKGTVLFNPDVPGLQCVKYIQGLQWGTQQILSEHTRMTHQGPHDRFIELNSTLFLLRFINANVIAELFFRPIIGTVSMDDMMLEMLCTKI

[4] = target: T4, Small ubiquitin-related modifier 1 (Homo sapiens, UniProt P63165); assay: inhibitors of SUMO1 partner interactions, dose response, biochemical, FRET (AID 624383); assay type: functional; conditions: read-out: IC50_Mean
T4 sequence (P63165 whole entry): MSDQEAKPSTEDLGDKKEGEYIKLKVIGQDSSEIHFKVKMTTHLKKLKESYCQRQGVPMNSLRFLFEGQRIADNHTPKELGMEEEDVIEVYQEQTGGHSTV

[5] = target: T4, Small ubiquitin-related modifier 1; assay: inhibitors of SUMO1 peptide binding, dose response, biochemical, fluorescence polarization, uHTS hits (AID 624382); assay type: functional; conditions: read-out: IC50_Mean
[6] = test system: Streptococcus sp. 'group A'; assay: growth inhibition of control SK(-) GAS strain, dose response, counter-screen for streptokinase expression inhibitor project, luminescence, kanamycin, BacTiterGlo, confirmation (AID 1900); assay type: functional, organism-based
Streptokinase A = target: T5, Streptokinase A (Streptococcus pyogenes serotype M1, UniProt P10520); assay: S. pyogenes streptokinase expression inhibitors, potency, dose response, plasminogen activation absorbance, OD405 (AID 1914); assay type: functional, Streptococcus pyogenes M1 GAS;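 also: secreted streptokinase activity via plasminogen activation per viability signal from cell pellet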
T5 sequence (P10520 whole entry): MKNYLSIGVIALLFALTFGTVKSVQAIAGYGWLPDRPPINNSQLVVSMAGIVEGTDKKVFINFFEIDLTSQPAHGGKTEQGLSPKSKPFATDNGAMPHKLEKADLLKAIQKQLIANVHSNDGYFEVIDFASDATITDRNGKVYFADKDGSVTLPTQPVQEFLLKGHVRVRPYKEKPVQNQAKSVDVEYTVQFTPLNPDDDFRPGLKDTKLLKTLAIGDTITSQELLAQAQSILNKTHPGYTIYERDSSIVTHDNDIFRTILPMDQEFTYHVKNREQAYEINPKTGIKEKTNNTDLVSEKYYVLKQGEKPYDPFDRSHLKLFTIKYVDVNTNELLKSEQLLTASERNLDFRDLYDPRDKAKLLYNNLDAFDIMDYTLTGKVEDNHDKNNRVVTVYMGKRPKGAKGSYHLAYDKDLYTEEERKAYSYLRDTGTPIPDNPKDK

Streptococcus = assay: Group A Streptococcus viability loss, dose response, counter-screen for streptokinase expression inhibitor project, luminescence, BacTiterGlo (AID 1915); assay type: functional, organism-based;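 also: potency for reduction of bacterial viability or growth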
[7] = target: 5-hydroxytryptamine receptor 2A (Mus musculus, UniProt P35363); assay type: functional, cell-based;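 also: CHO-K1 cells with tagged receptor and beta-arrestin; agonist potency measured as compound-induced activation of the receptor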
5-hydroxytryptamine receptor 2A, sequence (P35363 whole entry): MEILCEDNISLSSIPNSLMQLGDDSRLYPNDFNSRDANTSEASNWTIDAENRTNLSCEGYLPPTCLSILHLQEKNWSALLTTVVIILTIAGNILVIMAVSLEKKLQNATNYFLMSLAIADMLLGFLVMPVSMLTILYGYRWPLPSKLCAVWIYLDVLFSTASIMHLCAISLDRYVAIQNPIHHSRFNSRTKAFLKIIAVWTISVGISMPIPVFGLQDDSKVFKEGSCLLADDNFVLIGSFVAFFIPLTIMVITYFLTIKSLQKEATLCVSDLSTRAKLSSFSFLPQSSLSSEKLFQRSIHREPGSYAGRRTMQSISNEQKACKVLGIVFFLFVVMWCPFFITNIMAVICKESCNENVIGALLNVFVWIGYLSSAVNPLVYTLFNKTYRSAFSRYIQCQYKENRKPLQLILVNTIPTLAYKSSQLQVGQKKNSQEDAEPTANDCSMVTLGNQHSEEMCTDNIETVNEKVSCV

Mu-type opioid receptor = Mu-type opioid receptor (Homo sapiens, UniProt P35372); assay type: functional, cell-based;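 also: U2OS cells with beta-arrestin recruitment to OPRM1 by beta-gal complementation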
Mu-type opioid receptor, sequence (P35372 whole entry): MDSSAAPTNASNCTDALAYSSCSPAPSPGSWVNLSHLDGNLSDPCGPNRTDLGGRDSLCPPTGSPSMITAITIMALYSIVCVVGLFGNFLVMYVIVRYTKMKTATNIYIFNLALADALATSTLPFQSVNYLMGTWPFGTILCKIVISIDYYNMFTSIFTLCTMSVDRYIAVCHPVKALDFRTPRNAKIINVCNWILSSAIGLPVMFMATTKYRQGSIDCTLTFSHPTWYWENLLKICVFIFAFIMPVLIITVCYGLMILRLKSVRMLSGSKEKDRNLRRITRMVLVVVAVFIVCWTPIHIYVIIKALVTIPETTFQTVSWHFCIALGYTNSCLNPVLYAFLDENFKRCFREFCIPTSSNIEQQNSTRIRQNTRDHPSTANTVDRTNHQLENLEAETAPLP

[8] = target: T6, Long-chain-fatty-acid--AMP ligase FadD28 (Mycobacterium tuberculosis, UniProt P9WQ59); assay: Fluorescence polarization aasay to screen for inhibitors that compete for the binding of FadD28 to a bisubstrate Measured in Biochemical System Using Plate Reader - 2147-01_Inhibitor_Dose_CherryPick_Activity.; assay type: functional, Mycobacterium tuberculosis H37Rv
T6 sequence (P9WQ59 whole entry): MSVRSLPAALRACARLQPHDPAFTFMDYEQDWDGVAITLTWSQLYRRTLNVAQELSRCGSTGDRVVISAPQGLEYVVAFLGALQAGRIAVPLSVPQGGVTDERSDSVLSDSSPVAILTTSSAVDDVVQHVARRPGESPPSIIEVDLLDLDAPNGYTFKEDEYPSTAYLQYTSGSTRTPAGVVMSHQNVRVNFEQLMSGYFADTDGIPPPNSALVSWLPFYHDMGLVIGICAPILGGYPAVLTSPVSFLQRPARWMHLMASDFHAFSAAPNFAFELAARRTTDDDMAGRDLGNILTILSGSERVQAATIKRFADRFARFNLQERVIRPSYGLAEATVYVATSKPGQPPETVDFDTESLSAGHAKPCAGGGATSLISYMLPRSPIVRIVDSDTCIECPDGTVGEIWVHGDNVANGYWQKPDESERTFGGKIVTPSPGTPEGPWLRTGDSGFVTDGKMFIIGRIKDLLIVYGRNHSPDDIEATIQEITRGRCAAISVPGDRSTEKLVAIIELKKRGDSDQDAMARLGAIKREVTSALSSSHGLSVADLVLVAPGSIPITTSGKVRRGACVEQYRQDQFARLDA

Beta-lactamase [9] = target: T7, Beta-lactamase (Pseudomonas aeruginosa, UniProt Q79MP6); assay: IMP-1 metallo-beta-lactamase inhibitors, dose response, selectivity assay for VIM-2 inhibitor project, biochemical, epi-absorbance (AID 1920)
T7 sequence (Q79MP6 whole entry): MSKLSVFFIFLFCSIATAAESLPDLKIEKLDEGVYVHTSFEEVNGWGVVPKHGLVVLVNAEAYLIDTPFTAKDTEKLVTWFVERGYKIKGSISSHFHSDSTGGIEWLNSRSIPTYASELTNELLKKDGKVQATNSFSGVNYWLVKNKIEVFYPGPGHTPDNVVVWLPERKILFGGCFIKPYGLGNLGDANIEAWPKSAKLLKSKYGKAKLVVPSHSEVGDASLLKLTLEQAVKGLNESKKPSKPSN

Beta-lactamase [10] = target: Beta-lactamase (Salmonella choleraesuis (strain SC-B67), UniProt Q5J463); assay: Epi-absorbance-based counterscreen for selective VIM-2 inhibitors: dose response biochemical high throughput screening assay to identify inhibitors of TEM-1 serine-beta-lactamase.
Beta-lactamase (Salmonella choleraesuis (strain SC-B67), UniProt Q5J463), sequence (Q5J463 whole entry): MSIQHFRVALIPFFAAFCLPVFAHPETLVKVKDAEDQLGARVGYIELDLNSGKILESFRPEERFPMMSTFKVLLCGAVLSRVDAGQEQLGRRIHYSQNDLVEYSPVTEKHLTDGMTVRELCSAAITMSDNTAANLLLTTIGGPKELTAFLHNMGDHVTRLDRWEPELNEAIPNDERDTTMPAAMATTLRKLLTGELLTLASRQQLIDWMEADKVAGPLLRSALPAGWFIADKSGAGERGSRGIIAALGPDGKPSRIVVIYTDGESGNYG

Beta-lactamase [11] = target: T7, Beta-lactamase; assay: […] counterscreen for selective VIM-2 inhibitors: dose response biochemical high throughput screening assay to identify inhibitors of IMP-1 metallo-beta-lactamase.
[12] = inhibitors of firefly luciferase expression or activity, dose response, H4 neuroglioma cells, luminescence (AID 1990); assay type: functional, cell-based
[13] = inhibitors of SNCA 5'UTR-driven reporter translation, confirmation, H4 neuroglioma cells, luminescence (AID 1988); assay type: functional, cell-based
[14] = Luminescence Cell-Based Dose Response HTS to Identify Inhibitors of 5'UTR Stem-Loop Driven Prion Protein mRNA Translation in H4 Neuroglioblastoma Cells. [Related pubchem assays: 1827 (Project Summary), 1813 (Primary HTS)]; assay type: functional
Large T antigen = Large T antigen (Simian virus 40, UniProt P03070); assay type: functional, Betapolyomavirus macacae;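 also: Confirmatory-stage PubChem screen for compounds that inhibit SV40 T antigen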
Large T antigen, sequence (P03070 whole entry): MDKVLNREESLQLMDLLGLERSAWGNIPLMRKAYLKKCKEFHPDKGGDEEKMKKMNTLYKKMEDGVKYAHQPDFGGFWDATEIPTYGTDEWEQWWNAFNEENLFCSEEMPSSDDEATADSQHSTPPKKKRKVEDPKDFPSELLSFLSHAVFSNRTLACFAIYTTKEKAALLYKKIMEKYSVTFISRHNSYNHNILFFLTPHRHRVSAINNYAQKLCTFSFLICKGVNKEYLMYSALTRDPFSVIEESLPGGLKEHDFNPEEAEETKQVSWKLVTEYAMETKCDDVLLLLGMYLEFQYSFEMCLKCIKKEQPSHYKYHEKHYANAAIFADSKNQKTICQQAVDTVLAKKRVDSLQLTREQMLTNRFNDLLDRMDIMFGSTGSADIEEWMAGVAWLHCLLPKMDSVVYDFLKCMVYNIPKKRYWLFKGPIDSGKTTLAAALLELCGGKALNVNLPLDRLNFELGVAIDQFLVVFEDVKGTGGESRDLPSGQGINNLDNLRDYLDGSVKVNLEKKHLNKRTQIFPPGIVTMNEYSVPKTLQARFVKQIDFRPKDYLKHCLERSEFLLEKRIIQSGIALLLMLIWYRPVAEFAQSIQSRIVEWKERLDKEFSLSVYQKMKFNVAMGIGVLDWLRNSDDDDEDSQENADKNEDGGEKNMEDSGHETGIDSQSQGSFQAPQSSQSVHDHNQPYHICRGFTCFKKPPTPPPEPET

[15] = target: T8, Heat shock factor protein 1 (Mus musculus, UniProt P38532); assay: HSF1 potentiators in luciferase reporter cells, confirmation, cell-based, NIH3T3, luminescence, dose retest (AID 435004); assay type: functional;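 also: stress induced by proteasome inhibitor MG132 added 30 min after compound; luciferase reporter driven by HSF1 response element in NIH3T3 cells; actives raise luminescence as potentiators of the MG132 stress response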
T8 sequence (P38532 whole entry): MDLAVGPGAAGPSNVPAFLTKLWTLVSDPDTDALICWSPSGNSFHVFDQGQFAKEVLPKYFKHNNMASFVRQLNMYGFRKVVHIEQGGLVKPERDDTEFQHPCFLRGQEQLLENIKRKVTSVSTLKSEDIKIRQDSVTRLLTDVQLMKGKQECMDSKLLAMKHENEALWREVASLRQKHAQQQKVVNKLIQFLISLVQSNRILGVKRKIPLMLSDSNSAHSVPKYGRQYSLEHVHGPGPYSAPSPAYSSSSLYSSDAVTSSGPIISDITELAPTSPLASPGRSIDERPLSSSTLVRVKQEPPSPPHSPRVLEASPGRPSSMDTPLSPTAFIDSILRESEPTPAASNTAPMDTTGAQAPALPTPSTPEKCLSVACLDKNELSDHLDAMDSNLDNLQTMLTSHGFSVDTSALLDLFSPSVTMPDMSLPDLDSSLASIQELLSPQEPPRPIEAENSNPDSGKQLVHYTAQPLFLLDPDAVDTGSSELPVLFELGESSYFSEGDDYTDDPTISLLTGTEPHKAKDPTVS

[16] = target: SWI/SNF-related matrix-associated actin-dependent regulator of chromatin subfamily A member 2 (Homo sapiens, UniProt P51531); assay: Luminescence-based cell-based high throughput dose response assay to identify activators of the function of SWI/SNF related, matrix associated, actin dependent regulator of chromatin, subfamily a, member 2 (SMARCA2, BRM).; assay type: functional
[17] = target: Photoreceptor-specific nuclear receptor (Homo sapiens, UniProt Q9Y5X4); assay type: functional, cell-based;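 also: CHO-S cells with Gal4-NCOR and VP16-NR2E3 two-hybrid luciferase reporter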
Photoreceptor-specific nuclear receptor, sequence (Q9Y5X4 whole entry, the tested form may be a part): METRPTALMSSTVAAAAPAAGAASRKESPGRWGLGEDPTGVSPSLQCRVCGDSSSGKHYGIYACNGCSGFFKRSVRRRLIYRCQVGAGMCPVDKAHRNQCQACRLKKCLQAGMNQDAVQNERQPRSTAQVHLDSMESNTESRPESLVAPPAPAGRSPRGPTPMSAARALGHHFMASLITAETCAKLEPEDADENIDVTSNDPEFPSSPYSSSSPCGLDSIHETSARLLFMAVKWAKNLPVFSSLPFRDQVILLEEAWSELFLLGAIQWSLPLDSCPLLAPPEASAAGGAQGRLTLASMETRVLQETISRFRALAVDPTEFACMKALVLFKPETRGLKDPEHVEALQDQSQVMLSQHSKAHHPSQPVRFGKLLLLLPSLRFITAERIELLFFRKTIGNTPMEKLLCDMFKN

[18] = Counterscreen for activators of the function of SWI/SNF related, matrix associated, actin dependent regulator of chromatin, subfamily a, member 2 (SMARCA2, BRM): Luminescence-based cell-based high throughput dose response assay to identify non-selective compounds using the VP16 reporter assay.; assay type: functional

COc1ccc2c(c1)c(C(=O)CN1CCC3(CC1)OCCO3)c(C)n2Cc1ccccc1
AC50 [1]: 3.41 µM (active)

Cn1nnc(NC(=S)NC(=O)c2cccc3ccccc23)n1
IC50 [2]: > 40 µM (not active)
EC50 (Beta-galactosidase): > 40 µM (inactive)

O=C(Nc1ccccc1Cl)NC1CCCCCCC1
IC50 (cells): > 67.5 µM (inactive)
IC50 [3]: > 67.5 µM (inactive)

COc1ccc(Cl)cc1Nc1nc(-c2sc(NC(=O)CC(C)C)nc2C)cs1
IC50 [4]: 14.8 µM (active)
IC50 [5]: > 66.6 µM (inactive)

Cn1c(O)c(N=Nc2nc(-c3ccccc3)cs2)c2ccccc21
EC50 [6]: 3.21 µM (active)
EC50 (Streptokinase A): 7.09 µM (active)
IC50 [2]: > 40 µM (not active)
EC50 (Streptococcus): > 150 µM (not active)
EC50 (Beta-galactosidase): > 40 µM (inactive)

Cc1ccc(CN2CCN(c3ncccn3)CC2)c(C)c1
EC50 [7]: 0.337 µM (active)
EC50 (Mu-type opioid receptor): 92.4 µM (inactive)

CCCC(=O)C1=C(c2ccccc2)C(C#N)(C#N)C(C#N)=C1N
AC50 [8]: 32 µM (inactive)

Cc1cc(OCC(=O)N2CCC[C@@H]2C(=O)O)c2c(C)c(C)c(=O)oc2c1
IC50 (Beta-lactamase [9]): > 59.6 µM (inactive)
IC50 (Beta-lactamase [10]): > 59.6 µM (inactive)
IC50 (Beta-lactamase [11]): > 59.6 µM (inactive)

Cc1c(OCC(=O)N2CCC[C@@H]2C(=O)O)ccc2c3c(c(=O)oc12)CCC3
IC50 (Beta-lactamase [9]): > 59.6 µM (inactive)
IC50 (Beta-lactamase [10]): > 59.6 µM (inactive)
IC50 (Beta-lactamase [11]): > 59.6 µM (inactive)

CC1(C)C(C=C(Cl)Cl)C1C(=O)N1CCN(Cc2ccccc2)CC1 (configuration not stated)
EC50 [7]: 1.21 µM (active)
EC50 (Mu-type opioid receptor): 92.5 µM (inactive)

O=C(CCN1CCN(c2ccccc2F)CC1)Nc1ccc2c(c1)OCO2
EC50 [7]: 76.1 µM (inactive)
EC50 [12]: > 120 µM (not active)
EC50 [13]: > 120 µM (not active)
EC50 [14]: > 120 µM (not active)
EC50 (Mu-type opioid receptor): 92.5 µM (inactive)

CCSC1(SCC)N=C(N)C2(C#N)C(c3ccc(OC)c(OC)c3OC)C12C#N (configuration not stated)
IC50 (Large T antigen): > 100 µM (active)
EC50 [15]: 6.63 µM (active)
IC50 [2]: 27.5 µM (not active)
EC50 (Beta-galactosidase): > 40 µM (inactive)

O=C(CN1C(=O)C2CC=CCC2C1=O)OCC(=O)c1ccc(Cl)c([N+](=O)[O-])c1 (configuration not stated)
IC50 [2]: 16.3 µM (active)
EC50 (Beta-galactosidase): > 40 µM (inactive)

COc1cccc(N2CCN(c3nc(O)cc(-c4ccccc4C)n3)CC2)c1
EC50 [16]: > 91.2 µM (inactive)
IC50 [17]: 94.2 nM (active)
EC50 [18]: > 91.2 µM (inactive)

Cc1ccc(NC(=O)CSc2nc(=O)n(CCCN3CCOCC3)c3c2CCCC3)cc1F
AC50 [1]: 3.18 µM (active)

COc1ccccc1NC(=O)N[C@@H]1CC[C@H](CCn2cc(-c3cccnc3)nn2)O[C@H]1CO
AC50 [1]: 2.59 µM (active)

O=C(O)Cn1cccc1C(=O)c1ccccc1
IC50 (Beta-lactamase [9]): > 59.6 µM (inactive)
IC50 (Beta-lactamase [10]): > 59.6 µM (inactive)
IC50 (Beta-lactamase [11]): > 59.6 µM (inactive)
